Counter-ions that a name gives are not always drawn.
Experiments:
Type in all cases: in vivo
Portulaca oleracea = experiment: Field trial with soybeans, herbicidal action; details: 8–10 leaf stage, scoring 32 days after application
Method: (§1) Transgenic soybean plants with a resistance to one or more herbicides (A) together with typical weed plants were grown in the open on 2×5 m plots under natural field conditions; alternatively, weed infestation occurred naturally when the soybean plants were grown.
(§2) […] The damage to, and the development of, all aerial parts of the plants was recorded. Scoring was done on the basis of a percentage sale (100% action all plants destroyed; 50% action=50% of the plants and green parts of the plants destroyed; 0% action=no recognizable effect=like control plot. The mean of the score values of in each case 4 plots was calculated.

[1] = system: Soja LL (glufosinate-tolerant soybean culture); experiment: Field trial with soybeans, tolerance by crop plants
Method: as §1
(§3) 2, 4, 6 and 8 weeks after the application, the herbicidal activity of the active substances or active substance mixtures was scored visually with reference to the treated plots in comparison to untreated control plots. The damage to, and the development of, all aerial parts of the plants was recorded. Scoring was done on the basis of a percentage sale (100% action all plants destroyed; 50% action=50% of the plants and green parts of the plants destroyed; 0% action=no recognizable effect=like control plot. The mean of the score values of in each case 4 plots was calculated.

Sorghum sudaneus = experiment: Field trial with soybeans, herbicidal action; details: 4-leaf stage, scoring 28 days after application
Method: as §1, §3

Abutilon theophrasti = experiment: Field trial with soybeans, herbicidal action; details: 4-leaf stage, scoring 42 days after application
Method: as §1, §3

Digitalis abscendens = experiment: Field trial with soybeans, herbicidal action; details: application middle-end of stocking, scoring 3 weeks after application
Method: as §1, §2

Eleusine indica = experiment: Field trial with soybeans, herbicidal action; details: 3-leaf stage, scoring 42 days after application
Method: as §1, §3

Sida rombifolia = experiment: Field trial with soybeans, herbicidal action; details: 4-leaf stage, scoring 43 days after application
Pharbitis purpureum = experiment: Field trial with soybeans, herbicidal action; details: 3-leaf stage, scoring 42 days after application
Method: as §1, §3

Equisetum arvense = experiment: Field trial with soybeans, herbicidal action; details: 4–6 leaf stage, scoring 3 weeks after application
Method: as §1, §2

Xanthium orientalis = experiment: Field trial with soybeans, herbicidal action; details: 5-leaf stage, scoring 28 days after application
Method: as §1, §3

[2] = Table 8, 50 g of a.s./ha, 4-leaf stage, scoring 43 days after application

COC(=O)c1sccc1S(=O)(=O)NC(=O)Nc1nc(C)nc(OC)n1 [(B2.3), thifensulfuron-methyl]
Herbicidal action (%) against Portulaca oleracea (Portulaca oleracea; 5 g of a.s./ha): 45%
Herbicidal action (%) against Soja LL ([1]; in vivo): 3%
Herbicidal action (%) against Sorghum sudaneus (Sorghum sudaneus; 15 g of a.s./ha): 13%

COCC(C)N(C(=O)CCl)c1c(C)csc1C (centres unmarked) [(B1.7), dimethenamid]
Herbicidal action (%) against Abutilon theophrasti (Abutilon theophrasti; 1500 g of a.s./ha): 30%

CCc1cccc(CC)c1N(COC)C(=O)CCl [(B1.8), alachlor]
Herbicidal action (%) against Digitalis abscendens (Digitalis abscendens; 2580 g of a.s./ha): 48%

COc1cc(Cl)nc(NC(=O)NS(=O)(=O)c2ccccc2C(=O)O)n1 [(B2.11), chlorimuron]
Herbicidal action (%) against Soja LL ([1]; Table 6, 12.5 g of a.s./ha, 3-leaf stage, scoring 42 days after application): 0%
Herbicidal action (%) against Eleusine indica (Eleusine indica; 12.5 g of a.s./ha): 5%

Cc1ccn2nc(S(=O)(=O)Nc3c(F)cccc3F)nc2n1 [(B1.6), flumetsulam]
Herbicidal action (%) against Abutilon theophrasti (Abutilon theophrasti; 35 g of a.s./ha): 52%

Cc1cc(C)nc(NC(=O)NS(=O)(=O)c2ccccc2C(=O)OC2COC2)n1 [(B2.15), oxasulfuron]
Herbicidal action (%) against Sida rombifolia (Sida rombifolia; 50 g of a.s./ha): 60%
Herbicidal action (%) against Soja LL [1, 2]: 0%

COCc1cnc(C2=NC(C)(C(C)C)C(=O)N2)c(C(=O)O)c1 (centres unmarked) [(A3.5), imazamox]
Herbicidal action (%) against Soja LL ([1]; Table 7, 30 g of a.s./ha, 3-leaf stage, scoring 42 days after application): 0%
Herbicidal action (%) against Pharbitis purpureum (Pharbitis purpureum; 30 g of a.s./ha): 40%

O=C(O)c1cc(Oc2ccc(C(F)(F)F)cc2Cl)ccc1[N+](=O)[O-] [(B2.8), acifluorfen]
Herbicidal action (%) against Sorghum sudaneus (Sorghum sudaneus; 360 g of a.s./ha): 15%

CCOC(=O)C(C)OC(=O)c1cc(Oc2ccc(C(F)(F)F)cc2Cl)ccc1[N+](=O)[O-] (centres unmarked) [(B2.5), lactofen]
Herbicidal action (%) against Equisetum arvense (Equisetum arvense; 150 g of a.s./ha): 0%
Herbicidal action (%) against Equisetum arvense (Equisetum arvense; 300 g of a.s./ha): 0%
Herbicidal action (%) against Abutilon theophrasti (Abutilon theophrasti; 2240 g of a.s./ha): 20%

CCc1cnc(C2=NC(C)(C(C)C)C(=O)N2)c(C(=O)O)c1 (centres unmarked) [(A3.2), imazethapyr]
Herbicidal action (%) against Soja LL ([1]; in vivo): 0%
Herbicidal action (%) against Eleusine indica (Eleusine indica; 50 g of a.s./ha): 27%

CCCN(CCC)c1c([N+](=O)[O-])cc(C(F)(F)F)cc1[N+](=O)[O-] [(B1.1), trifluralin]
Herbicidal action (%) against Xanthium orientalis (Xanthium orientalis; 960 g of a.s./ha): 0%

CP(=O)(O)CCC(N)C(=O)O (centres unmarked) [(A1.2), glufosinate-monoammonium salt]
Herbicidal action (%) against Portulaca oleracea (Portulaca oleracea; 250 g of a.s./ha): 20%
Herbicidal action (%) against Portulaca oleracea (Portulaca oleracea; 500 g of a.s./ha): 65%
Herbicidal action (%) against Equisetum arvense (Equisetum arvense; 400 g of a.s./ha): 70%
Herbicidal action (%) against Digitalis abscendens (Digitalis abscendens; 1200 g of a.s./ha): 36%
Herbicidal action (%) against Sida rombifolia (Sida rombifolia; 150 g of a.s./ha): 25%
Herbicidal action (%) against Sida rombifolia (Sida rombifolia; 300 g of a.s./ha): 65%
Herbicidal action (%) against Soja LL ([1]; Table 5, 250 g of a.s./ha, 8–10 leaf stage, scoring 32 days after application): 0%
Herbicidal action (%) against Soja LL ([1]; Table 5, 500 g of a.s./ha, 8–10 leaf stage, scoring 32 days after application): 0%
Herbicidal action (%) against Soja LL ([1]; Table 6, 200 g of a.s./ha, 3-leaf stage, scoring 42 days after application): 0%
Herbicidal action (%) against Soja LL ([1]; Table 6, 500 g of a.s./ha, 3-leaf stage, scoring 42 days after application): 0%
Herbicidal action (%) against Soja LL ([1]; Table 7, 200 g of a.s./ha, 3-leaf stage, scoring 42 days after application): 0%
Herbicidal action (%) against Soja LL ([1]; Table 7, 400 g of a.s./ha, 3-leaf stage, scoring 42 days after application): 0%
Herbicidal action (%) against Soja LL ([1]; Table 8, 150 g of a.s./ha, 4-leaf stage, scoring 43 days after application): 0%
Herbicidal action (%) against Soja LL ([1]; Table 8, 300 g of a.s./ha, 4-leaf stage, scoring 43 days after application): 0%
Herbicidal action (%) against Xanthium orientalis (Xanthium orientalis; 300 g of a.s./ha): 96%
Herbicidal action (%) against Xanthium orientalis (Xanthium orientalis; 500 g of a.s./ha): 98%
Herbicidal action (%) against Sorghum sudaneus (Sorghum sudaneus; 300 g of a.s./ha): 15%
Herbicidal action (%) against Sorghum sudaneus (Sorghum sudaneus; 500 g of a.s./ha): 65%
Herbicidal action (%) against Abutilon theophrasti (Abutilon theophrasti; 330 g of a.s./ha): 45%
Herbicidal action (%) against Abutilon theophrasti (Abutilon theophrasti; 500 g of a.s./ha): 95%
Herbicidal action (%) against Pharbitis purpureum (Pharbitis purpureum; 200 g of a.s./ha): 35%
Herbicidal action (%) against Pharbitis purpureum (Pharbitis purpureum; 400 g of a.s./ha): 72%
Herbicidal action (%) against Eleusine indica (Eleusine indica; 200 g of a.s./ha): 40%
Herbicidal action (%) against Eleusine indica (Eleusine indica; 500 g of a.s./ha): 80%

C#CCN1C(=O)COc2cc(F)c(N3C(=O)C4=C(CCCC4)C3=O)cc21 [(B1.15), flumioxazin]
Herbicidal action (%) against Portulaca oleracea (Portulaca oleracea; 100 g of a.s./ha): 65%
Herbicidal action (%) against Soja LL ([1]; Table 5, 100 g of a.s./ha, 8–10 leaf stage, scoring 32 days after application): 0%
Herbicidal action (%) against Soja LL ([1]; Table 7, 12.5 g of a.s./ha, 3-leaf stage, scoring 42 days after application): 0%
Herbicidal action (%) against Pharbitis purpureum (Pharbitis purpureum; 12.5 g of a.s./ha): 30%

CON(C)C(=O)Nc1ccc(Cl)c(Cl)c1 [(B1.9), linuron]
Herbicidal action (%) against Sorghum sudaneus (Sorghum sudaneus; 750 g of a.s./ha): 15%

CC(C)N1C(=O)c2ccccc2NS1(=O)=O [(B2.2), bentazone]
Herbicidal action (%) against Soja LL ([1]; Table 7, 480 g of a.s./ha, 3-leaf stage, scoring 42 days after application): 0%
Herbicidal action (%) against Pharbitis purpureum (Pharbitis purpureum; 480 g of a.s./ha): 35%

CCc1cccc(C)c1N(C(=O)CCl)C(C)COC (centres unmarked) [(B1.5), metolachlor]
Herbicidal action (%) against Portulaca oleracea (Portulaca oleracea; 2240 g of a.s./ha): 30%
Herbicidal action (%) against Soja LL ([1]; Table 5, 2240 g of a.s./ha, 8–10 leaf stage, scoring 32 days after application): 0%

CCCCCOC(=O)COc1cc(N2C(=O)C3=C(CCCC3)C2=O)c(F)cc1Cl [(B2.7), flumiclorac-pentyl]
Herbicidal action (%) against Sida rombifolia (Sida rombifolia; 50 g of a.s./ha): 40%
Herbicidal action (%) against Soja LL [1, 2]: 0%

CCOC(=O)[C@@H](C)Oc1ccc(Oc2nc3ccc(Cl)cc3o2)cc1 [(B4.2), fenoxaprop-P-ethyl]
Herbicidal action (%) against Soja LL ([1]; Table 6, 25 g of a.s./ha, 3-leaf stage, scoring 42 days after application): 0%
Herbicidal action (%) against Soja LL ([1]; Table 6, 50 g of a.s./ha, 3-leaf stage, scoring 42 days after application): 0%
Herbicidal action (%) against Eleusine indica (Eleusine indica; 25 g of a.s./ha): 30%
Herbicidal action (%) against Eleusine indica (Eleusine indica; 50 g of a.s./ha): 70%

CCOc1nc(F)cc2nc(S(=O)(=O)Nc3c(Cl)cccc3C(=O)OC)nn12 [(B2.12), cloransulam-methyl]
Herbicidal action (%) against Portulaca oleracea (Portulaca oleracea; 18 g of a.s./ha): 73%
Herbicidal action (%) against Soja LL ([1]; Table 5, 18 g of a.s./ha, 8–10 leaf stage, scoring 32 days after application): 2%
Herbicidal action (%) against Soja LL ([1]; Table 7, 40 g of a.s./ha, 3-leaf stage, scoring 42 days after application): 0%
Herbicidal action (%) against Pharbitis purpureum (Pharbitis purpureum; 40 g of a.s./ha): 45%

Source: patent US7105470B1, “Herbicidal compositions for tolerant or resistant soybean crops” (Hoechst Schering AgrEvo GmbH, priority 1998, dated 2006)
